Experimental findings from US10670605B2, “Cysteine reactive probes and uses thereof” (The Scripps Research Institute, priority 2015, dated 2020) are described below.

Holding throughout (assay): Competitive isoTOP-ABPP in situ (fragment-treated cells)
What all share (assay type): cell-based

The target of assay [1] is T1, cysteines in MDA-MB-231 and Ramos cells (Homo sapiens, UniProt Q96AB3).
T1 sequence (Q96AB3 1-205): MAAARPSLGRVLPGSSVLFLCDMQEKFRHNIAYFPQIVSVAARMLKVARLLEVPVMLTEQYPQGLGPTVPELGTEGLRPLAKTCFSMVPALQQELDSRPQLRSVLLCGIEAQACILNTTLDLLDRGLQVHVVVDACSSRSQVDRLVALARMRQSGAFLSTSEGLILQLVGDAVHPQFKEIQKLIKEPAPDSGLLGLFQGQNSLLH
The settings on record: 200 μM, insitu.

For assay [2], the target named is T2, cysteines in MDA-MB-231 and Ramos cells (Homo sapiens, UniProt Q9HCC0).
T2 sequence (Q9HCC0 23-563): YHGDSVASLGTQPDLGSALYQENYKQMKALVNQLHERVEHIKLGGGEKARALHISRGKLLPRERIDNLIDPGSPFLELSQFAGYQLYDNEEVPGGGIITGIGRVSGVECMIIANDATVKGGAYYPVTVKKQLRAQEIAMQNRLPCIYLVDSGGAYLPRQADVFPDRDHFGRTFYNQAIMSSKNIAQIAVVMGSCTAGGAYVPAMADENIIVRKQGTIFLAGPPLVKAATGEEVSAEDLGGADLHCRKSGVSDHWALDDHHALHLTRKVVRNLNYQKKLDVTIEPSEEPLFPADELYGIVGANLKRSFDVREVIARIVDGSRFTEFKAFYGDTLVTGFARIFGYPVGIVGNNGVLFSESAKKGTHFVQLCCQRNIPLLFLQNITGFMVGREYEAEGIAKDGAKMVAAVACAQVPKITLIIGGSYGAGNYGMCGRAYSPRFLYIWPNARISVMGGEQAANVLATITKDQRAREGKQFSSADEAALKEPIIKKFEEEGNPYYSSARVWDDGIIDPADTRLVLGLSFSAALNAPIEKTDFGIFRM
To be noted: 200 μM, insitu, 231.

Assay [3] addresses T3, cysteines in MDA-MB-231 and Ramos cells (Homo sapiens, UniProt P23919).
T3 sequence (P23919 1-212): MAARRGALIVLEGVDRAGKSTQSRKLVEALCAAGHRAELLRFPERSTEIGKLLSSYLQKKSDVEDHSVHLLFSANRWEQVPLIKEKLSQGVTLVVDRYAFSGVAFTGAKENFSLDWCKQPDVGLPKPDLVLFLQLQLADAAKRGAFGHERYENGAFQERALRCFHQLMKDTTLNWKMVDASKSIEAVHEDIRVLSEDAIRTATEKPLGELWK
To be noted: 200 μM, insitu.

Assay [4] concerns the target T4, cysteines in MDA-MB-231 and Ramos cells (Homo sapiens, UniProt P24752).
T4 sequence (P24752 34-427): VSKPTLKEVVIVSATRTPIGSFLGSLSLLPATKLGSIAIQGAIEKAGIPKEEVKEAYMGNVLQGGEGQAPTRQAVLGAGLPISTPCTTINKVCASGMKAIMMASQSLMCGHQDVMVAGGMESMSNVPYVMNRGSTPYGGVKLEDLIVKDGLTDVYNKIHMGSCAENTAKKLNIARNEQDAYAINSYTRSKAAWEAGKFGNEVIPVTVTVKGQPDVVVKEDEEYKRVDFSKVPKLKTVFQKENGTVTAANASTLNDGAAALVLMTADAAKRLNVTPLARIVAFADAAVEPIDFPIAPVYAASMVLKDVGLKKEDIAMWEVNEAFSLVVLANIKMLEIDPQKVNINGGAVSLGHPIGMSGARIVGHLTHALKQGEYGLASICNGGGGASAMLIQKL
To be noted: 200 μM, insitu.

Assay [5] deals with cysteines in MDA-MB-231 and Ramos cells (Homo sapiens, UniProt O00299). To be noted: 200 μM, insitu.
In assay [6] the target is T5, cysteines in MDA-MB-231 and Ramos cells (Homo sapiens, UniProt Q9BTA9).
T5 sequence (Q9BTA9 1-647): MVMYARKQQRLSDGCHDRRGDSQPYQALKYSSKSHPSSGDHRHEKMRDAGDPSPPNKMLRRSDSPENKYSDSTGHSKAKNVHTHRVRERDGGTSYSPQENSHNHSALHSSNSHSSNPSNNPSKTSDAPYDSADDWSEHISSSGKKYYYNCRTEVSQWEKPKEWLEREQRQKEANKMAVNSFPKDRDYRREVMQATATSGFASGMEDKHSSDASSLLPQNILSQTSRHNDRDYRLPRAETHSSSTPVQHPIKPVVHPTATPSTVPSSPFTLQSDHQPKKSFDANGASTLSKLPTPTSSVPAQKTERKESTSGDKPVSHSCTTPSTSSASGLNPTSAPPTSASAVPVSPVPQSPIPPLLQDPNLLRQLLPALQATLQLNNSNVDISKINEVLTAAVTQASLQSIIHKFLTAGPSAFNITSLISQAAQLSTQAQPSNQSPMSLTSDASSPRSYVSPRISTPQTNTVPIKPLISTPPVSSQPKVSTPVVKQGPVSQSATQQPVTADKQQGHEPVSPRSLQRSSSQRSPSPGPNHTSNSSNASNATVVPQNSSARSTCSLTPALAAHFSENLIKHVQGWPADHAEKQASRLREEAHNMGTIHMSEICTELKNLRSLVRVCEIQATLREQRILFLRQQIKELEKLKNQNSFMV
The settings on record: 200 μM, insitu.

In the case of `CC(C)CCOCCNC(=O)CCl` [compound 27], the “isoTOP-ABPP ratio Q96AB3_C114” value in assay [1] (231) worked out at 1.0. In assay [2], the “isoTOP-ABPP ratio Q9HCC0_C216” value worked out at 1.0. Further, in assay [3] (231), the “isoTOP-ABPP ratio P23919_C163” value came out at 0.2. In addition, in assay [4] (231), the “isoTOP-ABPP ratio P24752_C119” value is listed as 1.6 and the “isoTOP-ABPP ratio P24752_C413” value is 1.9. Further, in assay [5] (231), the “isoTOP-ABPP ratio O00299_C24” value is recorded as 0.7.
As to `COc1ccccc1OCCNC(=O)CCl` [compound 28], the “isoTOP-ABPP ratio Q96AB3_C114” value in assay [1] (231) turned out to be 0.8. For the same compound, the “isoTOP-ABPP ratio P23919_C163” value in assay [3] (231) was 0.4. In assay [4] (231), the “isoTOP-ABPP ratio P24752_C119” value was 1.0; the “isoTOP-ABPP ratio P24752_C413” value is 1.0; the “isoTOP-ABPP ratio, P24752_C126” value is reported as 1.2.
With `O=C(CCl)N1CCN(CC(=O)N2CCOCC2)CC1` [compound 29], the “isoTOP-ABPP ratio Q96AB3_C114” value in assay [1] (ramos) is 1.1. The “isoTOP-ABPP ratio Q9BTA9_C553” value in assay [6] (ramos) came out at 1.1. For the same compound, the “isoTOP-ABPP ratio P23919_C117” value in assay [3] (ramos) amounted to 1.6. For the same compound, in assay [4] (ramos), the “isoTOP-ABPP ratio P24752_C119” value is 1.2; the “isoTOP-ABPP ratio P24752_C413” value was 1.2; the “isoTOP-ABPP ratio, P24752_C126” value is listed as 1.2; the “isoTOP-ABPP ratio, P24752_C196” value came to 1.1. The “isoTOP-ABPP ratio O00299_C24” value in assay [5] (ramos) was 1.1.
As to `C=CC(=O)N(Cc1cccnc1)c1cc(C(F)(F)F)cc(C(F)(F)F)c1` [compound 31], in assay [1] (231), the “isoTOP-ABPP ratio Q96AB3_C114” value is listed as 0.7. Moreover, the “isoTOP-ABPP ratio P23919_C163” value in assay [3] (ramos) was 1.0. Also, in assay [4] (231), the “isoTOP-ABPP ratio P24752_C119” value came to 0.6; the “isoTOP-ABPP ratio P24752_C413” value was 1.0; the “isoTOP-ABPP ratio, P24752_C126” value worked out at 0.7. Also, the “isoTOP-ABPP ratio P24752_C119” value in assay [4] (ramos) is given as 0.7. For the same compound, the “isoTOP-ABPP ratio O00299_C24” value in assay [5] (231) worked out at 0.6.
As for `C=CC(=O)Nc1cc(F)c(N2CCN(C(=O)OC(C)(C)C)CC2)c(F)c1` [compound 38], the “isoTOP-ABPP ratio Q96AB3_C114” value in assay [1] (231) amounted to 1.2. The “isoTOP-ABPP ratio Q9BTA9_C553” value in assay [6] (231) was 1.1. In assay [3] (231), the “isoTOP-ABPP ratio P23919_C117” value is on record as 4.4 and the “isoTOP-ABPP ratio P23919_C163” value stood at 5.7. In assay [4] (231), the “isoTOP-ABPP ratio P24752_C119” value was determined as 1.2; the “isoTOP-ABPP ratio P24752_C413” value was determined as 1.1; the “isoTOP-ABPP ratio, P24752_C196” value is reported as 1.0. For the same compound, the “isoTOP-ABPP ratio O00299_C24” value in assay [5] (231) came out at 1.0.
Consider `CC1CCc2ccccc2N1C(=O)CCl` (centres unmarked) [compound 45], for which, in assay [1] (231), the “isoTOP-ABPP ratio Q96AB3_C114” value stood at 3.1. Further, in assay [2], the “isoTOP-ABPP ratio Q9HCC0_C216” value is recorded as 7.0. Further, in assay [6] (231), the “isoTOP-ABPP ratio Q9BTA9_C553” value was 19.1. In assay [4] (231), the “isoTOP-ABPP ratio P24752_C119” value is 12.4 and the “isoTOP-ABPP ratio P24752_C413” value came out at 20.0.
Regarding `O=C(CCl)Nc1cccc2ncccc12` [compound 51], the “isoTOP-ABPP ratio Q96AB3_C114” value in assay [1] (231) is 0.8. For the same compound, in assay [2], the “isoTOP-ABPP ratio Q9HCC0_C216” value is 0.9. In addition, the “isoTOP-ABPP ratio Q9BTA9_C553” value in assay [6] (231) stood at 1.2. For the same compound, in assay [4] (231), the “isoTOP-ABPP ratio P24752_C119” value is given as 0.7 and the “isoTOP-ABPP ratio P24752_C413” value stood at 1.1.
